Test results taken from the supplement of paper PMC10307832.

Tests used:
Test in all cases: relative viability (nuclei count vs DMSO), 5 days (fraction); higher = more cells survive
AZD8055 + Luminespib = compound: COc1ccc(-c2ccc3c(N4CCOC[C@@H]4C)nc(N4CCOC[C@@H]4C)nc3n2)cc1CO [AZD8055] + CCNC(=O)c1noc(-c2cc(C(C)C)c(O)cc2O)c1-c1ccc(CN2CCOCC2)cc1 [Luminespib] (partner 0.01 µM)
Summary of the method: (§1)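 Lung cancer cell lines, seeded in 1536-well plates, were treated the following day by pin tool with a single drug or with five library-drug doses (not always all listed) in √10 steps on top of a fixed anchor-drug dose. Cells were fixed and nuclei stained in one step after 5 days, and nuclei were counted. Relative viability is the nuclei count for treated wells divided by that for vehicle wells, reported as medians of duplicate plates.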

AZD8055 + Bortezomib = compound: COc1ccc(-c2ccc3c(N4CCOC[C@@H]4C)nc(N4CCOC[C@@H]4C)nc3n2)cc1CO [AZD8055] + CC(C)C[C@H](NC(=O)[C@H](Cc1ccccc1)NC(=O)c1cnccn1)B(O)O [Bortezomib] (partner 0.002 µM)
Summary of the method: as §1

AZD8055 + Navitoclax = compound: COc1ccc(-c2ccc3c(N4CCOC[C@@H]4C)nc(N4CCOC[C@@H]4C)nc3n2)cc1CO [AZD8055] + CC1(C)CCC(c2ccc(Cl)cc2)=C(CN2CCN(c3ccc(C(=O)NS(=O)(=O)c4ccc(N[C@H](CCN5CCOCC5)CSc5ccccc5)c(S(=O)(=O)C(F)(F)F)c4)cc3)CC2)C1 [Navitoclax] (partner 0.5 µM)
Summary of the method: as §1

AZD8055 + Dasatinib = compound: COc1ccc(-c2ccc3c(N4CCOC[C@@H]4C)nc(N4CCOC[C@@H]4C)nc3n2)cc1CO [AZD8055] + Cc1nc(Nc2ncc(C(=O)Nc3c(C)cccc3Cl)s2)cc(N2CCN(CCO)CC2)n1 [Dasatinib] (partner 0.075 µM)
Summary of the method: as §1

| Cell Line | relative viability (AZD8055 + Luminespib; first compound 0.01 µM) | relative viability (AZD8055 + Luminespib; first compound 0.03162 µM) | relative viability (AZD8055 + Luminespib; first compound 0.1 µM) | relative viability (AZD8055 + Luminespib; first compound 0.3162 µM) | relative viability (AZD8055 + Luminespib; first compound 1 µM) | relative viability (AZD8055 + Bortezomib; first compound 0.01 µM) | relative viability (AZD8055 + Bortezomib; first compound 0.03162 µM) | relative viability (AZD8055 + Bortezomib; first compound 0.1 µM) | relative viability (AZD8055 + Bortezomib; first compound 0.3162 µM) | relative viability (AZD8055 + Bortezomib; first compound 1 µM) | relative viability (AZD8055 + Navitoclax; first compound 0.01 µM) | relative viability (AZD8055 + Navitoclax; first compound 0.03162 µM) | relative viability (AZD8055 + Navitoclax; first compound 0.1 µM) | relative viability (AZD8055 + Navitoclax; first compound 0.3162 µM) | relative viability (AZD8055 + Navitoclax; first compound 1 µM) | relative viability (AZD8055 + Dasatinib; first compound 0.01 µM) | relative viability (AZD8055 + Dasatinib; first compound 0.03162 µM) | relative viability (AZD8055 + Dasatinib; first compound 0.1 µM) | relative viability (AZD8055 + Dasatinib; first compound 0.3162 µM) | relative viability (AZD8055 + Dasatinib; first compound 1 µM) |
| --- | --- | --- | --- | --- | --- | --- | --- | --- | --- | --- | --- | --- | --- | --- | --- | --- | --- | --- | --- | --- |
| NCI-H3122 | 0.0869 | 0.101 | 0.114 | 0.0794 | 0.0854 | 1.14 | 0.998 | 1.09 | 0.728 | 0.657 | 1.13 | 1.05 | 0.687 | 0.435 | 0.348 | 0.653 | 0.684 | 0.783 | 0.223 | 0.292 |
| PC-3 [JPC-3] | 0.717 | 0.565 | 0.693 | 0.469 | 0.332 | 0.911 | 0.872 | 0.83 | 0.687 | 0.555 | 0.83 | 0.847 | 0.775 | 0.575 | 0.421 | 1.01 | 0.937 | 0.946 | 0.641 | 0.444 |
| PC-14 | 0.162 | 0.17 | 0.206 | 0.187 | 0.212 | 1.13 | 1.05 | 0.737 | 0.272 | 0.246 | 1.15 | 1.16 | 1.02 | 0.405 | 0.351 | 0.319 | 0.309 | 0.199 | 0.0815 | 0.0639 |
| RERF-LC-KJ | 1.19 | 1.14 | 0.853 | 0.475 | 0.473 | 1.18 | 0.921 | 0.748 | 0.528 | 0.569 | 0.925 | 0.838 | 0.586 | 0.428 | 0.333 | 0.946 | 0.753 | 0.607 | 0.284 | 0.343 |
| SK-LU-1 | 0.205 | 0.185 | 0.159 | 0.145 | 0.154 | 1.25 | 1.06 | 0.74 | 0.481 | 0.422 | 1.16 | 0.788 | 1.23 | 0.526 | 0.332 | 0.163 | 0.161 | 0.136 | 0.113 | 0.121 |
| SW 1573 | 0.121 | 0.256 | 0.167 | 0.103 | 0.187 | 1.16 | 0.826 | 0.711 | 0.286 | 0.255 | 0.869 | 0.855 | 0.646 | 0.304 | 0.21 | 0.583 | 0.534 | 0.262 | 0.114 | 0.103 |
| UMC-11 | 1 | 0.659 | 0.477 | 0.229 | 0.268 | 0.824 | 0.662 | 0.397 | 0.215 | 0.195 | 0.295 | 0.277 | 0.248 | 0.173 | 0.134 | 0.521 | 0.381 | 0.302 | 0.252 | 0.224 |
